The text below walks through data of patent publication US20030077289A1, “Use of cell-penetrating peptides to generate antitumor immunity” (priority 2001, published 2003).

In one experiment the test system is B16 tumor. To be noted: Schreurs et al., 2000; 9-mer versus 8-mer; cited from earlier work.
The subject of the next experiment is CD4+ T cells. Kind of experiment: Peptide-specific CD4+ T cell activity. It is filed as cell-based.
In another experiment the test system is mature DCs. Kind of experiment: Entry of fluorescein-labeled peptides into mature DCs (fluorescence microscopy). In kind it is cell-based, C57BL/6 mouse. How it is done: 1A) Peptide sequences for cell-penetrating peptide (CPP1), TRP-2 and control peptides. B) Fluorescence and phase-contrast microscopy of DC incubated with various peptide-FITC (40×magnification). DCs incubated with PBS served as a control. 1C) DCs incubated with CPP1-TRP2-FITC and viewed by phase-contrast or fluorescence microscopy at 60×magnification. Representative examples of DC/CPP1-TRP2-FITC are shown. The penetrating fluorescent peptide was localized in both the cytoplasm as well as the cell nucleus. 1D) T cell response to DCs loaded with each peptide (solid circle for CPP1-TRP2, open circle for TRP2, and open triangle for CPP1-βgal) at different time points after peptide pulsing. GM-CSF release from T cells was determined by ELISA.
Dendritic Cell Preparation and Analysis. Mouse immature and mature DCs were derived from C57BL/6 bone marrow as previously described (Labeur et al., 1999; Specht et al., 1997). Phenotype and mixed leukocyte reaction activity of DCs were analyzed according to the protocol described (Specht et al., 1997). Briefly, immature DCs were generated in the presence of murine GM-CSF without transfer steps. The loosely adherent immature DCs were harvested on day 5 and used for experiments. Mature DCs were generated in the presence of recombinant GM-CSF and 1000 U/ml of IL-4 (Peprotech, Rocky Hill, N.J.). […]

Residues, ends and D or L forms follow the SMILES beside them.

Regarding `CC(C)C[C@H](NC(=O)[C@H](Cc1c[nH]c2ccccc12)NC(=O)[C@@H](NC(=O)[C@H](Cc1ccccc1)NC(=O)[C@H](Cc1ccccc1)NC(=O)[C@H](CC(=O)O)NC(=O)[C@H](Cc1ccc(O)cc1)NC(=O)[C@@H](N)C(C)C)C(C)C)C(=O)O` [TRP2 (VYDFFVWL 8-mer), VYDFFVWL] (H-VYDFFVWL-OH), the “CTL activity in vitro after multiple immunization” value with B16 tumor is “comparable”. Turning to “AAVLLPVLLAAPSVYDFFVWL [CPP1-TRP2, TRP2 peptide covalently linked to cell-penetrating peptide CPP1 (21-mer)]”, in the experiment with CD4+ T cells, the “peptide-specific CD4+ T cell activity” value is “not detected”. Moreover, in the experiment on mature DCs (fluorescein-labeled peptide, mature DC), the “intracellular localization of peptide in DCs” value was “translocated and accumulated in the cytoplasm as well as the cell nucleus”. The “internalization of peptide into mature DCs” value with mature DCs (peptide labeled at N-terminus with fluorescein, incubated with mature DC) is recorded as “efficiently internalized”. In the case of SVYDFFVWL [TRP2, reference compound], the “peptide-specific CD4+ T cell activity” value in the experiment on CD4+ T cells is listed as “not detected”.
